Source: ChEMBL document CHEMBL4346657, “Anticancer activity, dual prooxidant/antioxidant effect and apoptosis induction profile of new bichalcophene-5-carboxamidines” (Eur J Med Chem, 2019)

Tests used:
[1] = system: RXF 393; experiment: Antiproliferative activity against human RXF393 cells assessed as growth inhibition after 48 hrs by sulforhodamine B assay; type: functional; details: RXF 393, 48 h
[2] = system: OVCAR-4; experiment: Antiproliferative activity against human OVCAR4 cells assessed as growth inhibition after 48 hrs by sulforhodamine B assay; type: functional; details: OVCAR-4, 48 h
[3] = system: NCI-H23; experiment: Antiproliferative activity against human NCI-H23 cells assessed as growth inhibition after 48 hrs by sulforhodamine B assay; type: functional; details: NCI-H23, 48 h
[4] = system: A498; experiment: Antiproliferative activity against human A498 cells assessed as growth inhibition after 48 hrs by sulforhodamine B assay; type: functional; details: A498, 48 h
[5] = system: SK-MEL-28; experiment: Antiproliferative activity against human SK-MEL-28 cells assessed as growth inhibition after 48 hrs by sulforhodamine B assay; type: functional; details: SK-MEL-28, 48 h
[6] = system: NCI-H522; experiment: Antiproliferative activity against human NCI-H522 cells assessed as growth inhibition after 48 hrs by sulforhodamine B assay; type: functional; details: NCI-H522, 48 h
[7] = system: HCT-116; experiment: Reduction in CDK1 mRNA expression in human HCT116 cells at 100 nM after 6 hrs hrs by SYBR green dye-based qRT-PCR analysis relative to control; type: functional; details: HCT-116, 6 h
[8] = system: BT-549; experiment: Antiproliferative activity against human BT549 cells assessed as growth inhibition after 48 hrs by sulforhodamine B assay; type: functional; details: BT-549, 48 h
[9] = system: SN12C; experiment: Antiproliferative activity against human SN12C cells assessed as growth inhibition after 48 hrs by sulforhodamine B assay; type: functional
[10] = system: MDA-MB-231; experiment: Antiproliferative activity against human MDA-MB-231/ATCC cells assessed as growth inhibition after 48 hrs by sulforhodamine B assay; type: functional; details: MDA-MB-231, 48 h
[11] = system: M14; experiment: Antiproliferative activity against human M14 cells assessed as growth inhibition after 48 hrs by sulforhodamine B assay; type: functional; details: M14, 48 h
[12] = system: Erythrocyte; experiment: Haemolytic activity in human erythrocytes assessed as induction of hemolysis at 2.5 mM after 30 mins relative to H202; type: cell-based; details: erythrocyte, 0.5 h, 2500 µM
[13] = system: T47D; experiment: Antiproliferative activity against human T47D cells assessed as growth inhibition after 48 hrs by sulforhodamine B assay; type: functional
[14] = system: CAKI-1; experiment: Antiproliferative activity against human CAKI-1 cells assessed as growth inhibition after 48 hrs by sulforhodamine B assay; type: functional; details: CAKI-1, 48 h
[15] = system: SR; experiment: Antiproliferative activity against human SR cells assessed as growth inhibition after 48 hrs by sulforhodamine B assay; type: functional
[16] = system: MDA-MB-468; experiment: Antiproliferative activity against human MDA-MB-468 cells assessed as growth inhibition after 48 hrs by sulforhodamine B assay; type: functional; details: MDA-MB-468, 48 h
[17] = system: NCI-H226; experiment: Antiproliferative activity against human NCI-H226 cells assessed as growth inhibition after 48 hrs by sulforhodamine B assay; type: functional; details: NCI-H226, 48 h
[18] = system: TK-10; experiment: Antiproliferative activity against human TK10 cells assessed as growth inhibition after 48 hrs by sulforhodamine B assay; type: functional; details: TK-10, 48 h
[19] = system: UACC-257; experiment: Antiproliferative activity against human UACC257 cells assessed as growth inhibition after 48 hrs by sulforhodamine B assay; type: functional; details: UACC-257, 48 h
[20] = system: OVCAR-8; experiment: Antiproliferative activity against human OVCAR8 cells assessed as growth inhibition after 48 hrs by sulforhodamine B assay; type: functional; details: OVCAR-8, 48 h
[21] = system: HCT-116; experiment: Induction of apoptosis in human HCT116 cells assessed as increase in caspase 3 mRNA expression at 100 nM after 6 hrs hrs by SYBR green dye-based qRT-PCR analysis relative to control; type: functional
[22] = system: HOP-92; experiment: Antiproliferative activity against human HOP92 cells assessed as growth inhibition after 48 hrs by sulforhodamine B assay; type: functional; details: HOP-92, 48 h
[23] = Antioxidant activity assessed as ABTS radical scavenging activity by spectrophotometric method relative to ascorbic acid; type: functional
[24] = system: RPMI-8226; experiment: Antiproliferative activity against human RPMI8226 cells assessed as growth inhibition after 48 hrs by sulforhodamine B assay; type: functional; details: RPMI-8226, 48 h
[25] = Antioxidant activity assessed as DPPH radical scavenging activity incubated in dark for 30 mins by spectrophotometric method relative to control; type: functional; set-up: concentration or dose not given beside the values
[26] = system: SW-620; experiment: Antiproliferative activity against human SW620 cells assessed as growth inhibition after 48 hrs by sulforhodamine B assay; type: functional; details: SW-620, 48 h
[27] = Haemolytic activity in human erythrocytes assessed as induction of hemolysis at 10 mM after 30 mins relative to H202; type: cell-based, Erythrocyte; details: read-out: Activity
[28] = system: K562; experiment: Antiproliferative activity against human K562 cells assessed as growth inhibition after 48 hrs by sulforhodamine B assay; type: functional, cell-based; details: K562, 48 h
[29] = system: MCF7; experiment: Antiproliferative activity against human MCF7 cells assessed as growth inhibition after 48 hrs by sulforhodamine B assay; type: functional; details: MCF7, 48 h
[30] = Haemolytic activity in human erythrocytes assessed as induction of hemolysis at 5 mM after 30 mins relative to H202; type: cell-based, Erythrocyte; details: read-out: Activity
[31] = Antioxidant activity assessed as ABTS radical scavenging activity by spectrophotometric analysis relative to control; type: functional; set-up: concentration or dose not given beside the values; details: dose or concentration not given here
[32] = system: HCT-116; experiment: Induction of apoptosis in human HCT116 cells assessed as increase in p53 mRNA expression at 100 nM after 6 hrs hrs by SYBR green dye-based qRT-PCR analysis relative to control; type: functional
[33] = system: HOP-62; experiment: Antiproliferative activity against human HOP62 cells assessed as growth inhibition after 48 hrs by sulforhodamine B assay; type: functional; details: HOP-62, 48 h
[34] = system: SF-539; experiment: Antiproliferative activity against human SF539 cells assessed as growth inhibition after 48 hrs by sulforhodamine B assay; type: functional; details: SF-539, 48 h
[35] = system: OVCAR-5; experiment: Antiproliferative activity against human OVCAR5 cells assessed as growth inhibition after 48 hrs by sulforhodamine B assay; type: functional; details: OVCAR-5, 48 h
[36] = system: UACC-62; experiment: Antiproliferative activity against human UACC62 cells assessed as growth inhibition after 48 hrs by sulforhodamine B assay; type: functional; details: UACC-62, 48 h
[37] = system: HCT-116; experiment: Antiproliferative activity against human HCT116 cells assessed as growth inhibition after 48 hrs by sulforhodamine B assay; type: functional; details: HCT-116, 48 h
[38] = system: COLO 205; experiment: Antiproliferative activity against human COLO205 cells assessed as growth inhibition after 48 hrs by sulforhodamine B assay; type: functional; details: COLO 205, 48 h

SMILES: N=C(N)c1ccc(-c2ccc(-c3cncc4ccccc34)s2)s1
- GI50 [1]: 1.6 µM
- GI50 [2]: 0.3 µM
- GI50 [3]: 1.76 µM
- GI50 [4]: 1.69 µM
- GI50 [5]: 1.64 µM
- GI50 [6]: 1.65 µM
- inhibition at 0.1 µM [7]: 84%
- GI50 [8]: 1.51 µM
- GI50 [9]: 1.8 µM
- GI50 [10]: 1.35 µM
- GI50 [11]: 1.62 µM
- Activity [12]: Non-Toxic
- GI50 [13]: 1.52 µM
- GI50 [14]: 1.6 µM
- GI50 [15]: 0.27 µM
- GI50 [16]: 1.27 µM
- GI50 [17]: 1.91 µM
- GI50 [18]: 1.84 µM
- GI50 [19]: 2.47 µM
- GI50 [20]: 1.83 µM
- fold change (FC) [21]: 3.03
- GI50 [22]: 1.37 µM
- fold change (FC) [23]: 0.8
- GI50 [24]: 1.78 µM
- inhibition [25]: 52.5%
- GI50 [26]: 1.08 µM
- hemolysis at 0.5 h, 10000 µM [27]: 12.3%
- IC50 ([28]; read-out: IC50): 0.24 µM
- IC50 ([28]; read-out: pIC50 (converted)): 38000 µM
- GI50 [29]: 0.28 µM
- hemolysis at 0.5 h, 5000 µM [30]: 4%
- inhibition [31]: 69.9%
- fold change (FC) [32]: 4.67
- GI50 [33]: 1.7 µM
- GI50 [34]: 1.73 µM
- GI50 [35]: 1.71 µM
- GI50 [36]: 2.31 µM
- GI50 [37]: 1.61 µM
- GI50 [38]: 0.75 µM

SMILES: COc1ccc2cc(-c3ccc(-c4ccc(C(=N)N)s4)s3)ccc2c1
- GI50 [1]: 7.22 µM
- GI50 [2]: 1.82 µM
- GI50 [3]: 3.22 µM
- GI50 [4]: 14.3 µM
- GI50 [5]: 2.5 µM
- GI50 [6]: 1.92 µM
- GI50 [8]: 17.6 µM
- GI50 [9]: 2.12 µM
- GI50 [10]: 2.46 µM
- GI50 [11]: 4 µM
- Activity [12]: Non-Toxic
- GI50 [13]: 1.79 µM
- GI50 [14]: 8.29 µM
- GI50 [15]: 0.85 µM
- GI50 [16]: 2.34 µM
- GI50 [17]: 23.6 µM
- GI50 [18]: 14.2 µM
- GI50 [19]: 19.6 µM
- GI50 [20]: 2.34 µM
- fold change (FC) [21]: 2.44
- fold change (FC) [23]: 0.6
- GI50 [24]: 2.16 µM
- inhibition [25]: 43%
- GI50 [26]: 1.91 µM
- hemolysis at 0.5 h, 10000 µM [27]: 18.7%
- IC50 ([28]; read-out: IC50): 1.18 µM
- GI50 [29]: 1.91 µM
- hemolysis at 0.5 h, 5000 µM [30]: 11.3%
- inhibition [31]: 57.4%
- fold change (FC) [32]: 1.03
- GI50 [33]: 1.78 µM
- GI50 [34]: 3.91 µM
- GI50 [35]: 2.11 µM
- GI50 [36]: 2.01 µM
- GI50 [37]: 2.08 µM
- GI50 [38]: 2.04 µM

SMILES: N=C(N)c1ccc(-c2ccc(-c3cc(Cl)cc(Cl)c3)s2)s1
- GI50 [1]: 1.85 µM
- GI50 [2]: 1.91 µM
- GI50 [3]: 1.99 µM
- GI50 [4]: 1.53 µM
- GI50 [5]: 1.83 µM
- GI50 [6]: 1.91 µM
- inhibition at 0.1 µM [7]: 79%
- GI50 [8]: 4.37 µM
- GI50 [9]: 2.02 µM
- GI50 [10]: 1.87 µM
- GI50 [11]: 2.02 µM
- Activity [12]: Non-Toxic
- GI50 [13]: 1.8 µM
- GI50 [14]: 1.72 µM
- GI50 [15]: 1.06 µM
- GI50 [16]: 2.06 µM
- GI50 [17]: 30.8 µM
- GI50 [18]: 1.85 µM
- GI50 [19]: 2.05 µM
- GI50 [20]: 2.39 µM
- fold change (FC) [21]: 1.61
- fold change (FC) [23]: 0.4
- GI50 [24]: 2.33 µM
- inhibition [25]: 27.2%
- GI50 [26]: 1.92 µM
- hemolysis at 0.5 h, 10000 µM [27]: 17%
- IC50 ([28]; read-out: IC50): 1.29 µM
- GI50 [29]: 1.34 µM
- hemolysis at 0.5 h, 5000 µM [30]: 6.7%
- inhibition [31]: 36.2%
- fold change (FC) [32]: 3.98
- GI50 [33]: 1.76 µM
- GI50 [34]: 1.7 µM
- GI50 [35]: 1.96 µM
- GI50 [36]: 1.92 µM
- GI50 [37]: 1.61 µM
- GI50 [38]: 1.54 µM
